{"source": "patent US20140243292A1", "about": "“SUBSITUTED 2-(CHROMAN-6-YLOXYL)-THIAZOLES AND THEIR USE AS PHARMACEUTICALS” (Sanofi, priority 2011, published 2014)", "note": "Structures can show the parent of a compound that is named as a salt.", "data": [{"target": "T1, human NCX1 (Homo sapiens, UniProt P32418)", "T1 construct": "expressed in transfected cells", "test": "NCX1 inhibition, reverse mode (Ca2+ influx into cells), FLIPR Fluo-4 assay", "assay_type": "cell-based", "conditions": "inhibition of NCX1 in reverse mode (Ca2+ influx into cells); read-out: NCX1rv IC50", "method_in_brief": "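CHO cells stably expressing human NCX1 were loaded with 2 µM Fluo-4 AM for 80 min at room temperature, then preincubated with compound for 45 min at 16 °C in pH 7.4 HEPES buffer (3.5 mM CaCl2, 2.5 mM probenecid). Reverse-mode Ca2+ influx was triggered by 20 µM final gramicidin and read at 520 nm on FLIPR. IC50 came from % inhibition of max−min fluorescence.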", "units": {"IC50": "nM"}, "values": [{"smiles": "CC(C)OC(=O)CNC(=O)c1cnc(Oc2ccc3c(c2)CCC(c2ccccc2)O3)s1", "note": "(stereo not shown) [compound 307]", "IC50": 200}, {"smiles": "CCOC(=O)CNC(=O)c1cnc(Oc2ccc3c(c2)CCC(c2ccccc2)O3)s1", "note": "(stereo not shown) [compound 308]", "IC50": 200}, {"smiles": "O=C(NCc1ccno1)c1cnc(Oc2ccc3c(c2)CCC(c2cnccn2)O3)s1", "note": "(stereo not shown) [compound 309]", "IC50": 4700}, {"smiles": "O=C(NCc1ccnc(Cl)c1)c1cnc(Oc2ccc3c(c2)CCC(c2cnccn2)O3)s1", "note": "(stereo not shown) [compound 310]", "IC50": 2600}, {"smiles": "OCCNCc1cnc(Oc2ccc3c(c2)CCC(c2ccccc2)O3)s1", "note": "(stereo not shown) [compound 311]", "IC50": 100}, {"smiles": "O=C(c1cnc(Oc2ccc3c(c2)CCC(c2ccccc2)O3)s1)N(CCO)CCO", "note": "(stereo not shown) [compound 312]", "IC50": 100}, {"smiles": "CN1CCN(C(=O)c2cnc(Oc3ccc4c(c3)CCC(c3ccccc3)O4)s2)CC1", "note": "(stereo not shown) [compound 313]", "IC50": 400}, {"smiles": "O=C(c1cnc(Oc2ccc3c(c2)CCC(c2ccccc2)O3)s1)N1CCOCC1", "note": "(stereo not shown) [compound 314]", "IC50": 100}, {"smiles": "O=C(c1cnc(Oc2ccc3c(c2)CCC(c2ccccc2)O3)s1)N1CCCCC1", "note": "(stereo not shown) [compound 316]", "IC50": 500}, {"smiles": "CCCCNC(=O)c1cnc(Oc2ccc3c(c2)CCC(c2ccccc2)O3)s1", "note": "(stereo not shown) [compound 317]", "IC50": 100}, {"smiles": "CC(C)CNC(=O)c1cnc(Oc2ccc3c(c2)CCC(c2ccccc2)O3)s1", "note": "(stereo not shown) [compound 318]", "IC50": 100}, {"smiles": "OCCN(CCO)Cc1cnc(Oc2ccc3c(c2)CCC(c2ccccc2)O3)s1", "note": "(stereo not shown) [compound 319]", "IC50": 800}, {"smiles": "CC(C)NC(=O)c1cnc(Oc2ccc3c(c2)CCC(c2ccccc2)O3)s1", "note": "(stereo not shown) [compound 320]", "IC50": 300}, {"smiles": "CCc1ccccc1C1CCc2cc(Oc3ncc(C(=O)NCCN4CCNC4=O)s3)ccc2O1", "note": "(stereo not shown) [compound 322]", "IC50": 1100}, {"smiles": "CCc1ccccc1C1CCc2cc(Oc3ncc(C(=O)NCCc4c(C)noc4C)s3)ccc2O1", "note": "(stereo not shown) [compound 323]", "IC50": 900}, {"smiles": "CCc1ccccc1C1CCc2cc(Oc3ncc(C(=O)NCc4ccno4)s3)ccc2O1", "note": "(stereo not shown) [compound 324]", "IC50": 500}, {"smiles": "Cc1ccccc1C1CCc2cc(Oc3ncc(CNC(=O)CN4C(=O)CNC4=O)s3)ccc2O1", "note": "(stereo not shown) [compound 328]", "IC50": 900}, {"smiles": "Cc1cccc(C)c1C1CCc2cc(Oc3ncc(C(=O)NCc4ccno4)s3)ccc2O1", "note": "(stereo not shown) [compound 331]", "IC50": 5500}, {"smiles": "CCCNC(=O)c1sc(Oc2ccc3c(c2)CCC(c2ccccc2C)O3)nc1C", "note": "(stereo not shown) [compound 332]", "IC50": 10000}, {"smiles": "Cc1ccccc1C1CCc2cc(Oc3nc(C)c(C(=O)NCCN4CCNC4=O)s3)ccc2O1", "note": "(stereo not shown) [compound 333]", "IC50": 600}, {"smiles": "Cc1ccccc1C1CCc2cc(Oc3nc(C)c(C(=O)N4CC[C@@H](O)C4)s3)ccc2O1", "note": "(stereo partly shown) [compound 336]", "IC50": 600}, {"smiles": "Cc1cccc(C)c1C1CCc2cc(Oc3ncc(C(=O)NCCO)s3)ccc2O1", "note": "(stereo not shown) [compound 337]", "IC50": 7600}, {"smiles": "Cc1cccc(C)c1C1CCc2cc(Oc3ncc(C(=O)N(C)C)s3)ccc2O1", "note": "(stereo not shown) [compound 338]", "IC50": 8700}, {"smiles": "NC(=O)c1cnc(Oc2ccc3c(c2)CCC(c2ccccc2)O3)s1", "note": "(stereo not shown) [compound 339]", "IC50": 400}, {"smiles": "N[C@@H](CO)C(=O)NCc1cnc(Oc2ccc3c(c2)CCC(c2ccccc2)O3)s1", "note": "(stereo partly shown) [compound 340, hydrochloride]", "IC50": 900}, {"smiles": "O=C(NCc1cnc(Oc2ccc3c(c2)CCC(c2ccccc2)O3)s1)[C@@H]1CCCN1", "note": "(stereo partly shown) [compound 341, hydrochloride]", "IC50": 900}, {"smiles": "Cc1ccc(F)cc1C1CCc2cc(Oc3ncc(C(=O)NCc4ccno4)s3)ccc2O1", "note": "(stereo not shown) [compound 344]", "IC50": 800}, {"smiles": "O=C(CN1CCCC1)NCc1cnc(Oc2ccc3c(c2)CCC(c2ccccc2)O3)s1", "note": "(stereo not shown) [compound 346, hydrochloride]", "IC50": 170}, {"smiles": "Cc1ccc(F)cc1C1CCc2cc(Oc3ncc(C(=O)NCCN4CCNC4=O)s3)ccc2O1", "note": "(stereo not shown) [compound 349]", "IC50": 200}, {"smiles": "O=C(NCCO)c1csc(Oc2ccc3c(c2)CC[C@@H](c2ccccc2)O3)n1", "note": "[compound 350]", "IC50": 120}, {"smiles": "CCCNC(=O)c1csc(Oc2ccc3c(c2)CC[C@@H](c2ccccc2)O3)n1", "note": "[compound 351]", "IC50": 110}, {"smiles": "O=C(NCc1ccno1)c1csc(Oc2ccc3c(c2)CC[C@@H](c2ccccc2)O3)n1", "note": "[compound 353]", "IC50": 92}, {"smiles": "CC(O)CNC(=O)c1cnc(Oc2ccc3c(c2)CCC(c2ccccc2)O3)s1", "note": "(stereo not shown) [compound 354]", "IC50": 160}, {"smiles": "O=C(NC1CCCC1O)c1cnc(Oc2ccc3c(c2)CCC(c2ccccc2)O3)s1", "note": "(stereo not shown) [compound 355]", "IC50": 250}, {"smiles": "Cc1ccc(F)cc1C1CCc2cc(Oc3ncc(C(=O)N4CC[C@@H](O)C4)s3)ccc2O1", "note": "(stereo partly shown) [compound 356]", "IC50": 540}, {"smiles": "Cc1cc2c(cc1Oc1ncc(C(=O)NCCO)s1)CCC(c1ccccc1C)O2", "note": "(stereo not shown) [compound 357]", "IC50": 600}, {"smiles": "Cc1cc2c(cc1Oc1ncc(C(=O)NCc3ccno3)s1)CCC(c1ccccc1C)O2", "note": "(stereo not shown) [compound 358]", "IC50": 830}, {"smiles": "CCn1nccc1CNC(=O)c1cnc(Oc2cc3c(cc2C)OC(c2ccccc2C)CC3)s1", "note": "(stereo not shown) [compound 359]", "IC50": 1500}, {"smiles": "COc1cccc(C2CCc3cc(Oc4ncc(C(=O)NCCO)s4)ccc3O2)c1F", "note": "(stereo not shown) [compound 360]", "IC50": 1800}, {"smiles": "COc1cccc(C2CCc3cc(Oc4ncc(C(=O)NCc5ccno5)s4)ccc3O2)c1F", "note": "(stereo not shown) [compound 361]", "IC50": 9600}, {"smiles": "CCn1nccc1CNC(=O)c1cnc(Oc2ccc3c(c2)CCC(c2cccc(OC)c2F)O3)s1", "note": "(stereo not shown) [compound 362]", "IC50": 1500}, {"smiles": "CC1Cc2cc(Oc3ncc(C(=O)NCc4ccno4)s3)ccc2OC1c1ccccc1", "note": "(stereo not shown) [compound 363]", "IC50": 1900}, {"smiles": "CC1Cc2cc(Oc3ncc(C(=O)NCCO)s3)ccc2OC1c1ccccc1", "note": "(stereo not shown) [compound 364]", "IC50": 960}, {"smiles": "CCn1nccc1CNC(=O)c1cnc(Oc2ccc3c(c2)CCC(c2cccc(F)c2OC)O3)s1", "note": "(stereo not shown) [compound 365]", "IC50": 550}, {"smiles": "COc1c(F)cccc1C1CCc2cc(Oc3ncc(C(=O)NCc4ccno4)s3)ccc2O1", "note": "(stereo not shown) [compound 366]", "IC50": 180}, {"smiles": "COc1c(F)cccc1C1CCc2cc(Oc3ncc(C(=O)NCCO)s3)ccc2O1", "note": "(stereo not shown) [compound 367]", "IC50": 270}]}]}
